Numbers after ± are expanded uncertainties.
Settings: Liquid

CCCCCCn1cc[n+](C)c1.F[B-](F)(F)F [1-hexyl-3-methylimidazolium tetrafluoroborate]
Settings	mass density [kg/m3]
293.15 K, 101.33 kPa, Vibrating tube method	1148.5 ± 3.4
313.15 K, 101.33 kPa, Vibrating tube method	1134.7 ± 3.3
313.3 K, 10000 kPa, Bellows volumetry	1139 ± 3
313.3 K, 20000 kPa, Bellows volumetry	1144 ± 3
313.3 K, 30000 kPa, Bellows volumetry	1149 ± 3
313.3 K, 40000 kPa, Bellows volumetry	1154 ± 3
313.3 K, 50000 kPa, Bellows volumetry	1158 ± 3
313.3 K, 60000 kPa, Bellows volumetry	1162 ± 3
313.3 K, 70000 kPa, Bellows volumetry	1167 ± 3
313.3 K, 80000 kPa, Bellows volumetry	1171 ± 3
313.3 K, 90000 kPa, Bellows volumetry	1174 ± 3
313.3 K, 100000 kPa, Bellows volumetry	1178 ± 4
313.3 K, 110000 kPa, Bellows volumetry	1182 ± 4
313.3 K, 120000 kPa, Bellows volumetry	1186 ± 4
313.3 K, 130000 kPa, Bellows volumetry	1189 ± 4
313.3 K, 140000 kPa, Bellows volumetry	1193 ± 4
313.3 K, 150000 kPa, Bellows volumetry	1196 ± 4
313.3 K, 160000 kPa, Bellows volumetry	1199 ± 4
313.3 K, 170000 kPa, Bellows volumetry	1202 ± 4
313.3 K, 180000 kPa, Bellows volumetry	1206 ± 4
313.3 K, 190000 kPa, Bellows volumetry	1209 ± 4
313.3 K, 200000 kPa, Bellows volumetry	1212 ± 4
332.5 K, 10000 kPa, Bellows volumetry	1126 ± 3
332.5 K, 20000 kPa, Bellows volumetry	1131 ± 3
332.5 K, 30000 kPa, Bellows volumetry	1136 ± 3
332.5 K, 40000 kPa, Bellows volumetry	1141 ± 3
332.5 K, 50000 kPa, Bellows volumetry	1146 ± 3
332.5 K, 60000 kPa, Bellows volumetry	1150 ± 3
332.5 K, 70000 kPa, Bellows volumetry	1154 ± 3
332.5 K, 80000 kPa, Bellows volumetry	1159 ± 3
332.5 K, 90000 kPa, Bellows volumetry	1163 ± 3
332.5 K, 100000 kPa, Bellows volumetry	1167 ± 3
332.5 K, 110000 kPa, Bellows volumetry	1170 ± 3
332.5 K, 120000 kPa, Bellows volumetry	1174 ± 3
332.5 K, 130000 kPa, Bellows volumetry	1178 ± 3
332.5 K, 140000 kPa, Bellows volumetry	1181 ± 4
332.5 K, 150000 kPa, Bellows volumetry	1185 ± 4
332.5 K, 160000 kPa, Bellows volumetry	1188 ± 4
332.5 K, 170000 kPa, Bellows volumetry	1192 ± 4
332.5 K, 180000 kPa, Bellows volumetry	1195 ± 4
332.5 K, 190000 kPa, Bellows volumetry	1198 ± 4
332.5 K, 200000 kPa, Bellows volumetry	1201 ± 4
333.15 K, 101.33 kPa, Vibrating tube method	1121 ± 3.3
352.6 K, 10000 kPa, Bellows volumetry	1113 ± 3
352.6 K, 20000 kPa, Bellows volumetry	1118 ± 3
352.6 K, 30000 kPa, Bellows volumetry	1123 ± 3
352.6 K, 40000 kPa, Bellows volumetry	1128 ± 3
352.6 K, 50000 kPa, Bellows volumetry	1133 ± 3
352.6 K, 60000 kPa, Bellows volumetry	1138 ± 3
352.6 K, 70000 kPa, Bellows volumetry	1142 ± 3
352.6 K, 80000 kPa, Bellows volumetry	1147 ± 3
352.6 K, 90000 kPa, Bellows volumetry	1151 ± 3
352.6 K, 100000 kPa, Bellows volumetry	1155 ± 3
352.6 K, 110000 kPa, Bellows volumetry	1159 ± 3
352.6 K, 120000 kPa, Bellows volumetry	1163 ± 3
352.6 K, 130000 kPa, Bellows volumetry	1167 ± 3
352.6 K, 140000 kPa, Bellows volumetry	1170 ± 3
352.6 K, 150000 kPa, Bellows volumetry	1174 ± 3
352.6 K, 160000 kPa, Bellows volumetry	1177 ± 3
352.6 K, 170000 kPa, Bellows volumetry	1181 ± 4
352.6 K, 180000 kPa, Bellows volumetry	1184 ± 4
352.6 K, 190000 kPa, Bellows volumetry	1187 ± 4
352.6 K, 200000 kPa, Bellows volumetry	1191 ± 4
353.15 K, 101.33 kPa, Vibrating tube method	1107.6 ± 3.3
372.7 K, 10000 kPa, Bellows volumetry	1099 ± 3
372.7 K, 20000 kPa, Bellows volumetry	1105 ± 3
372.7 K, 30000 kPa, Bellows volumetry	1111 ± 3
372.7 K, 40000 kPa, Bellows volumetry	1116 ± 3
372.7 K, 50000 kPa, Bellows volumetry	1121 ± 3
372.7 K, 60000 kPa, Bellows volumetry	1126 ± 3
372.7 K, 70000 kPa, Bellows volumetry	1131 ± 3
372.7 K, 80000 kPa, Bellows volumetry	1135 ± 3
372.7 K, 90000 kPa, Bellows volumetry	1139 ± 3
372.7 K, 100000 kPa, Bellows volumetry	1144 ± 3
372.7 K, 110000 kPa, Bellows volumetry	1148 ± 3
372.7 K, 120000 kPa, Bellows volumetry	1152 ± 3
372.7 K, 130000 kPa, Bellows volumetry	1156 ± 3
372.7 K, 140000 kPa, Bellows volumetry	1160 ± 3
372.7 K, 150000 kPa, Bellows volumetry	1163 ± 3
372.7 K, 160000 kPa, Bellows volumetry	1167 ± 3
372.7 K, 170000 kPa, Bellows volumetry	1170 ± 3
372.7 K, 180000 kPa, Bellows volumetry	1174 ± 3
372.7 K, 190000 kPa, Bellows volumetry	1177 ± 3
372.7 K, 200000 kPa, Bellows volumetry	1180 ± 4
393 K, 10000 kPa, Bellows volumetry	1087 ± 3
393 K, 20000 kPa, Bellows volumetry	1093 ± 3
393 K, 30000 kPa, Bellows volumetry	1098 ± 3
393 K, 40000 kPa, Bellows volumetry	1104 ± 3
393 K, 50000 kPa, Bellows volumetry	1109 ± 3
393 K, 60000 kPa, Bellows volumetry	1114 ± 3
393 K, 70000 kPa, Bellows volumetry	1119 ± 3
393 K, 80000 kPa, Bellows volumetry	1124 ± 3
393 K, 90000 kPa, Bellows volumetry	1128 ± 3
393 K, 100000 kPa, Bellows volumetry	1133 ± 3
393 K, 110000 kPa, Bellows volumetry	1137 ± 3
393 K, 120000 kPa, Bellows volumetry	1141 ± 3
393 K, 130000 kPa, Bellows volumetry	1145 ± 3
393 K, 140000 kPa, Bellows volumetry	1149 ± 3
393 K, 150000 kPa, Bellows volumetry	1153 ± 3
393 K, 160000 kPa, Bellows volumetry	1157 ± 3
393 K, 170000 kPa, Bellows volumetry	1160 ± 3
393 K, 180000 kPa, Bellows volumetry	1164 ± 3
393 K, 190000 kPa, Bellows volumetry	1167 ± 3
393 K, 200000 kPa, Bellows volumetry	1171 ± 3
413 K, 10000 kPa, Bellows volumetry	1074 ± 3
413 K, 20000 kPa, Bellows volumetry	1080 ± 3
413 K, 30000 kPa, Bellows volumetry	1086 ± 3
413 K, 40000 kPa, Bellows volumetry	1092 ± 3
413 K, 50000 kPa, Bellows volumetry	1098 ± 3
413 K, 60000 kPa, Bellows volumetry	1103 ± 3
413 K, 70000 kPa, Bellows volumetry	1108 ± 3
413 K, 80000 kPa, Bellows volumetry	1113 ± 3
413 K, 90000 kPa, Bellows volumetry	1118 ± 3
413 K, 100000 kPa, Bellows volumetry	1122 ± 3
413 K, 110000 kPa, Bellows volumetry	1126 ± 3
413 K, 120000 kPa, Bellows volumetry	1131 ± 3
413 K, 130000 kPa, Bellows volumetry	1135 ± 3
413 K, 140000 kPa, Bellows volumetry	1139 ± 3
413 K, 150000 kPa, Bellows volumetry	1143 ± 3
413 K, 160000 kPa, Bellows volumetry	1147 ± 3
413 K, 170000 kPa, Bellows volumetry	1150 ± 3
413 K, 180000 kPa, Bellows volumetry	1154 ± 3
413 K, 190000 kPa, Bellows volumetry	1158 ± 3
413 K, 200000 kPa, Bellows volumetry	1161 ± 3
432.9 K, 10000 kPa, Bellows volumetry	1062 ± 3
432.9 K, 20000 kPa, Bellows volumetry	1068 ± 3
432.9 K, 30000 kPa, Bellows volumetry	1075 ± 3
432.9 K, 40000 kPa, Bellows volumetry	1081 ± 3
432.9 K, 50000 kPa, Bellows volumetry	1086 ± 3
432.9 K, 60000 kPa, Bellows volumetry	1092 ± 3
432.9 K, 70000 kPa, Bellows volumetry	1097 ± 3
432.9 K, 80000 kPa, Bellows volumetry	1102 ± 3
432.9 K, 90000 kPa, Bellows volumetry	1107 ± 3
432.9 K, 100000 kPa, Bellows volumetry	1112 ± 3
432.9 K, 110000 kPa, Bellows volumetry	1116 ± 3
432.9 K, 120000 kPa, Bellows volumetry	1121 ± 3
432.9 K, 130000 kPa, Bellows volumetry	1125 ± 3
432.9 K, 140000 kPa, Bellows volumetry	1129 ± 3
432.9 K, 150000 kPa, Bellows volumetry	1133 ± 3
432.9 K, 160000 kPa, Bellows volumetry	1137 ± 3
432.9 K, 170000 kPa, Bellows volumetry	1141 ± 3
432.9 K, 180000 kPa, Bellows volumetry	1145 ± 3
432.9 K, 190000 kPa, Bellows volumetry	1148 ± 3
432.9 K, 200000 kPa, Bellows volumetry	1152 ± 3
452.6 K, 10000 kPa, Bellows volumetry	1049 ± 3
452.6 K, 20000 kPa, Bellows volumetry	1056 ± 3
452.6 K, 30000 kPa, Bellows volumetry	1063 ± 3
452.6 K, 40000 kPa, Bellows volumetry	1069 ± 3
452.6 K, 50000 kPa, Bellows volumetry	1075 ± 3
452.6 K, 60000 kPa, Bellows volumetry	1081 ± 3
452.6 K, 70000 kPa, Bellows volumetry	1086 ± 3
452.6 K, 80000 kPa, Bellows volumetry	1092 ± 3
452.6 K, 90000 kPa, Bellows volumetry	1097 ± 3
452.6 K, 100000 kPa, Bellows volumetry	1101 ± 3
452.6 K, 110000 kPa, Bellows volumetry	1106 ± 3
452.6 K, 120000 kPa, Bellows volumetry	1111 ± 3
452.6 K, 130000 kPa, Bellows volumetry	1115 ± 3
452.6 K, 140000 kPa, Bellows volumetry	1119 ± 3
452.6 K, 150000 kPa, Bellows volumetry	1123 ± 3
452.6 K, 160000 kPa, Bellows volumetry	1128 ± 3
452.6 K, 170000 kPa, Bellows volumetry	1131 ± 3
452.6 K, 180000 kPa, Bellows volumetry	1135 ± 3
452.6 K, 190000 kPa, Bellows volumetry	1139 ± 3
452.6 K, 200000 kPa, Bellows volumetry	1143 ± 3
472.5 K, 10000 kPa, Bellows volumetry	1037 ± 3
472.5 K, 20000 kPa, Bellows volumetry	1045 ± 3
472.5 K, 30000 kPa, Bellows volumetry	1052 ± 3
472.5 K, 40000 kPa, Bellows volumetry	1058 ± 3
472.5 K, 50000 kPa, Bellows volumetry	1064 ± 3
472.5 K, 60000 kPa, Bellows volumetry	1070 ± 3
472.5 K, 70000 kPa, Bellows volumetry	1076 ± 3
472.5 K, 80000 kPa, Bellows volumetry	1081 ± 3
472.5 K, 90000 kPa, Bellows volumetry	1087 ± 3
472.5 K, 100000 kPa, Bellows volumetry	1092 ± 3
472.5 K, 110000 kPa, Bellows volumetry	1096 ± 3
472.5 K, 120000 kPa, Bellows volumetry	1101 ± 3
472.5 K, 130000 kPa, Bellows volumetry	1105 ± 3
472.5 K, 140000 kPa, Bellows volumetry	1110 ± 3
472.5 K, 150000 kPa, Bellows volumetry	1114 ± 3
472.5 K, 160000 kPa, Bellows volumetry	1118 ± 3
472.5 K, 170000 kPa, Bellows volumetry	1122 ± 3
472.5 K, 180000 kPa, Bellows volumetry	1126 ± 3
472.5 K, 190000 kPa, Bellows volumetry	1130 ± 3
472.5 K, 200000 kPa, Bellows volumetry	1134 ± 3
